EC50 and DC50 data for eight compounds are collected here from patent publication US20250320205A1, “STAT6 DEGRADERS” (Gilead Sciences, Inc., priority 2024, published 2025).

Experiment [1] deals with Eotaxin-3 (CCL26) release. Briefly: Human Whole Blood Eotaxin-3 Assay (IL-4 stimulated). The class given is cell-based. The conditions noted are these: Homo sapiens; geometric mean across assay runs and compound batches; EC50 provided for test compounds with >80% Emax. The procedure: This was a human whole blood assay using recombinant human Interleukin 4 to stimulate the blood and measuring the ability of the test compounds to inhibit eotaxin-3 release. The biological activities of the test compounds have been tested in human whole blood stimulated with IL-4 measuring Eotaxin-3 release. The test compounds were added to 384 well clear flat-bottom plate in a 4-fold serial dilution in triplicates using a liquid handler. Human whole blood stabilized in lithium-heparin tubes was added in a volume of 65 μL per well, resulting in a final DMSO concentration of 0.5%. The plate is incubated for 2 h at 37° C. under 5% CO2/95% air. Subsequently, 5 μL of recombinant human IL-4 (R&D Systems, cat #204-ILB) was added to the wells to a final concentration of 400 pM. The plate was incubated for 48 h at 37° C. under 5% CO2/95% air. The plate was spun down for 10 minutes at 500×g and 20 μL supernatant was harvested and transferred to a 384 well v-bottom plate using a liquid handler and stored at −20° C. until further analysis. 10 μL supernatant was used to measure the level of Eotaxin-3 (CCL26) using Human Eotaxin-3 MSD kit from Mesocsale (Cat #K251UEK-4). The assay was performed according to the manufacture instructions.

The target in a further experiment is T1, STAT6 (Homo sapiens, UniProt P42226).
T1 construct: These cells express endogenous STAT6; host or cells: HeLa LgBiT clone 4.14 (CRISPR knock-in of HiBiT into the endogenous STAT6 gene)
T1 sequence (P42226 1-847): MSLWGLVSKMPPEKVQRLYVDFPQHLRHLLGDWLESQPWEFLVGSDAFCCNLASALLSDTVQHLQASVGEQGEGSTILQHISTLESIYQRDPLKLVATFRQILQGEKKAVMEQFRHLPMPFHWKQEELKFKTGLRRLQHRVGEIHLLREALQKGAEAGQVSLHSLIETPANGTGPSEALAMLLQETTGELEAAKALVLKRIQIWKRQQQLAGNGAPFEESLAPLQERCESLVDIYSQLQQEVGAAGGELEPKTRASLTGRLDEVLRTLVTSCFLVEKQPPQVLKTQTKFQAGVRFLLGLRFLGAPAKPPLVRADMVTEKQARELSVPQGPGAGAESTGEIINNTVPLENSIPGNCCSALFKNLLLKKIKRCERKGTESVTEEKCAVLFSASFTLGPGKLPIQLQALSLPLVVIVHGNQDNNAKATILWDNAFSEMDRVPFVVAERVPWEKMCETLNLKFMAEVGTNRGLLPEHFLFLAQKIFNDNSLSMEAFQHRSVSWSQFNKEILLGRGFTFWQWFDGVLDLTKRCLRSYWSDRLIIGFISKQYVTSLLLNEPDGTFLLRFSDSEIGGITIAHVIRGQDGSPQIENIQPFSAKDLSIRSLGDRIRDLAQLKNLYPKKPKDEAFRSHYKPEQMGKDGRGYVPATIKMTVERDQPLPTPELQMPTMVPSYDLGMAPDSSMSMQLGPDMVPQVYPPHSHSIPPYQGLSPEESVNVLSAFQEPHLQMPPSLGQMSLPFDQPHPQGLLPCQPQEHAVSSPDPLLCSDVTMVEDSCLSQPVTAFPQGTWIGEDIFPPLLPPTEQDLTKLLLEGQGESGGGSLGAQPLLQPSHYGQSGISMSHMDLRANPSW
The experiment in a line: STAT6 Degrader Assay (HiBiT based, HeLa LgBiT clone 4.14 cells). The conditions noted are these: geometric mean across assay runs and compound batches; DC50 provided for test compounds with >80% Emax; read-out: STAT6 degradation DC50. The class given is cell-based. The procedure:
This was a HiBit based assay. A HeLa cell line stably transfected with a small protein, LgBit (Large Bit) was obtained from Promega. These cells express endogenous STAT6. A small 11 amino acid gene sequence (HiBiT) was inserted in the STAT6 gene using CRISPR technology. Once STAT6 protein is expressed in the cells, the HiBiT sequence will bind the LgBit in the cells resulting in a functional NanoBiT protein, giving a luminescent tag to STAT6. Single cell clones were prepared and the clone 4.14 was selected for the assay based on that clone showing high luminescence, high STAT6 phosphorylation upon stimulation with IL-4, and inhibition of luminescence when cells were treated with STAT6 siRNA. HeLa LgBiT clone 4.14 cells were suspended in DMEM with 10% FCS, 1% Pen/Strep, Na-pyrovate and Hygromycin B, at a concentration of 1.25*105 cells pr mL. 5000 cells were added pr well of a 384 well plate and 20 nL of compound was added by Echo® liquid handler. NN6394A (terfenadine, a toxic compound) was added to control wells at 50 μM concentration to establish the assay window. In these wells the cells are dead which equals 100% degradation of STAT6. After 4-24 h of incubation at 37° C. under 5% CO2/95% air, 5 μL substrate (Nano-GLO®) was added to the wells and the plates were centrifuged and incubated for 0.5 h. The luminescence in the wells as a measure of non-degraded STAT6 was measured in a plate reader (BMG Pherastar FSX). The measured DC50 (in nM) was determined.

As to `CNc1cc(=O)n(-c2ccnc3c2cc(CN2CC=C(c4c(F)cc(C(=O)N5CCC(CN6CCN(c7ccc(N[C@@H]8CCC(=O)NC8=O)cc7F)CC6)CC5)cc4F)CC2)n3C)cc1F` (single isomer, unassigned) [Example 2g67], a half-maximal effect in experiment [1] (EC50) was put at 0.0994 µM. Consider `CNc1cc(=O)n(-c2ccnc3c2cc([C@H](C)N2CC=C(c4c(C)cc(C(=O)N5CCn6nc(CN7CCC(c8cc(OC)c(NC9CCC(=O)NC9=O)cc8F)CC7)cc6C5)cc4F)CC2)n3C)cc1F` (stereo partly drawn) [Example 2g50, 3-((5-fluoro-4-(1-((5-(3-fluoro-4-(1-((S)-1-(4-(5-fluoro-4-(methylamino)-2-oxopyridin-1(2H)-yl)-1-meth-yl-1H-pyrrolo[2,3-b]pyridin-2-yl)ethyl)-1,2,3,6-tetrahydro-hydropyridin-4-yl)-5-methyl-benzoyl)-4,5,6,7-tetrahydro-pyrazolo[1,5-a]pyrazin-2-yl)-methyl)piperidin-4-yl)-2-methoxyphenyl)amino)piperi-dine-2,6-dione], for which the concentration for a half-maximal effect (EC50) (usually the midpoint of the concentration-response curve) in experiment [1] worked out at 0.121 µM. The compound `CNc1ccn(-c2ccnc3c2cc([C@H](C)N2CC=C(c4c(C)cc(C(=O)N5CCC(CN6CCN(c7cccc(C(=O)NC8CCC(=O)NC8=O)c7)CC6)CC5)cc4F)CC2)n3C)c(=O)c1` (stereo partly drawn) [Example 2g21, N-(2,6-dioxopiperidin-3-yl)-3-(4-((1-(3-fluoro-5-methyl-4-(1-((S)-1-(1-methyl-4-(4-(methylamino)-2-oxopyridin-1(2H)-yl)-1H-pyrrolo[2,3-b]pyridin-2-yl)ethyl)-1,2,3,6-tetrahydropyridin-4-yl)benzo-yl)piperidin-4-yl)methyl)-piperazin-1-yl)benzamide] came in with an EC50 in experiment [1] of 0.0364 µM. `CNc1cc(=O)n(-c2ccnc3c2cc([C@@H](C)N2CCC(c4c(F)cc(C(=O)N5CCn6nc(CN7CCC(c8ccc(NC9CCC(=O)NC9=O)cc8F)CC7)cc6C5)cc4F)CC2)n3C)cc1F` (stereo partly drawn) [Example 2g51, 3-((4-(1-((5-(3,5-difluoro-4-(1-((R)-1-(4-(5-fluoro-4-(methylamino)-2-oxopyridin-1(2H)-yl)-1-methyl-1H-pyrrolo[2,3-b]pyridin-2-yl)-ethyl)piperidin-4-yl)benzoyl)-4,5,6,7-tetrahydropyrazolo [1,5-a]pyrazin-2-yl)methyl)-piperidin-4-yl)-3-fluorophen-yl)amino)piperidine-2,6-dione] showed a concentration for a half-maximal effect (EC50) in experiment [1] of 0.0517 µM. `CNc1cc(=O)n(-c2ccnc3c2cc([C@H](C)N2CC=C(c4c(C)cc(C(=O)N5CCC(CN6CCN(c7ccc(NC8CCC(=O)NC8=O)cc7F)C[C@H]6C)CC5)cc4F)CC2)n3C)cc1F` (stereo partly drawn) [Example 2g27, 3-((3-fluoro-4-((R)-4-((1-(3-fluoro-4-(1-((S)-1-(4-(5-fluoro-4-(methylamino)-2-oxopyridin-1(2H)-yl)-1-meth-yl-1H-pyrrolo[2,3-b]pyridin-2-yl)ethyl)-1,2,3,6-tetrahydro-pyridin-4-yl)-5-methylbenz-oyl)piperidin-4-yl)methyl)-3-methylpiperazin-1-yl)phenyl)-amino)piperidine-2,6-dione]: the DC50 (as a rule, the concentration giving 50% degradation) at STAT6 was 0.0042 µM. Regarding `CNc1ccn(-c2ccnc3c2cc([C@H](C)N2CCC(c4c(C)cc(C(=O)N5CCC(CN6CCN(c7ccc(N[C@H]8CCC(=O)NC8=O)cc7F)CC6)CC5)cc4F)CC2)n3C)c(=O)c1` (single isomer, unassigned) [Example 2g45], the DC50 on STAT6 is 0.0107 µM. Take `CNc1cc(=O)n(-c2ccnc3c2cc(CN2CCC(c4c(F)cc(C(=O)N5CCC(CN6CCN(c7ccc(N[C@H]8CCC(=O)NC8=O)cc7F)CC6)CC5)cc4F)CC2)n3C)cc1F` (single isomer, unassigned) [Example 2g34]: the 50% degradation concentration (DC50) at STAT6 is 0.0151 µM. For `Cc1cc(C(=O)N2CCC(CN3CCN(c4ccc(NC5CCC(=O)NC5=O)cc4F)CC3)CC2)cc(F)c1C1CCN(Cc2cc3c(-n4ccc5c(c4=O)CCN5)ccnc3n2C)CC1` (centres unmarked) [Example 2g36, 3-((3-fluoro-4-(4-((1-(3-fluoro-5-methyl-4-(1-((1-methyl-4-(4-oxo-1,2,3,4-tetrahydro-5H-pyrrolo[3,2-c]pyridin-5-yl)-1H-pyrrolo[2,3-b]pyridin-2-yl)methyl)piperi-din-4-yl)benzoyl)piperidin-4-yl)methyl)piperazin-1-yl)-phenyl)amino)piperidine-2,6-dione], the DC50 on STAT6 is 0.0357 µM.
